In publication PMC11728142, “A Tachyplesin Antimicrobial Peptide from Theraphosidae Spiders with Potent Antifungal Activity Against Cryptococcus neoformans” (Microorganisms, 2024):
Values after ≈ are worked out from the molar mass of the structure shown. Positions of bridges follow the written chain, without caps; N, C: chain ends. Residues, ends and D or L forms follow the SMILES beside them.

Experiments:
[1] = test system: Cryptococcus neoformans_ATCC32045; test: microbe, parasite or virus in culture
Method: (§1) To achieve a final cell concentration of 2 × 10^6 CFU/mL, mid-log phase cultures were diluted with a Yeast and Mold (YM) broth and then put to 96-well plates with two-fold serially diluted peptides (from 0.1 to 89.8 µM) in a 1:1 ratio.

[2] = test system: Candida albicans_ATCC10231; test: microbe, parasite or virus in culture
Method: as §1

[3] = test system: Candida auris_84; test: microbe, parasite or virus in culture
Method: as §1

[4] = test system: Cryptococcus neoformans_BNCC225501; test: microbe, parasite or virus in culture
Method: as §1

[5] = test system: Candida auris_55; test: microbe, parasite or virus in culture
Method: as §1

[6] = test system: C. neoformans; test: Membrane potential assay, DiSC3(5) dye; type: cell-based, Cryptococcus neoformans; settings: 1×, 2×, 4× and 8× the MIC, up to 40 min, ex/em 622/670 nm
Method: An overnight culture of C. neoformans cells was washed thrice and re-suspended in the HEPES buffer (with 5 mM of HEPES, 20 mM of glucose and 0.1 M of KCl, pH 7.5) to achieve a cell density of 10^8 CFU/mL. The fungal suspension was then incubated with 10 µM of DiSC3(5) for 30 min at 37 °C in the dark. […] PBS was added as the negative control and amphotericin B as the positive control. The negative control PBS-treated wells were used to establish baseline fluorescence. Fluorescence intensity was measured and recorded over time for up to 40 min at excitation/emission wavelengths of 622/670 nm. An increase in fluorescence indicated membrane depolarization, which implies the disruption of membrane integrity.

[7] = test system: TNF-α, IL-6, IL-1β, MCP-1; test: Plasma cytokine levels of infected mice, ELISA; type: in vivo, C57BL/6J female mice; settings: QS18 1, 2, 4 mg/kg i.p., n = 4
Method: Mice systemic infection and the treatment model were performed to assess the dissemination of fungi to target organs as described by with little modifications. C57BL/6J female mice 20 ± 2 g were immunocompromised through the intraperitoneal injection of 150 mg/kg cyclophosphamide for four days prior to infection. C. neoformans was then cultured in YPDA broth media to mid-log phase. […] Fungal pellets were resuspended in the same buffer, and the optical density (OD) value was adjusted to 4 × 10^7 CFU/mL. A volume of 200 µL of the fungal solution was i.p. injected into immunocompromised mice (n = 4), a total of 8 × 10^6 colony-forming units (CFUs) injected per mouse. Twelve hours post-intraperitoneal inoculation of the fungi, treatment was administered. […] Twelve hours post-treatment, the mice were sacrificed, and blood was collected through retro-orbital bleeding. Organs (lung, liver, kidney, and spleen) were also harvested and divided into two parts. […]
Blood collected through retro-orbital bleeding was centrifuged for 25 min at 5000 rpm to isolate plasma. Following the manufacturer’s guidelines, standard enzyme-linked immunosorbent assay (ELISA) kits were used to quantify the cytokine levels of tumor necrosis factor-α (TNF-α), interleukin-6 (IL-6), interleukin--1β (IL-1β), and monocyte chemoattractant protein-1 (MCP-1) in the plasma.

[8] = test system: C. neoformans BNCC225501 biofilms; test: Two-photon laser scanning microscopy of biofilms, FDA/PI; type: cell-based, Cryptococcus neoformans; settings: 0.5× to 8 × the MIC, 24 h at 37 °C
Method: Fluorescein diacetate (FDA) and Propidium iodide (PI) dyes were utilized to stain live and dead cells, respectively. The fungi were cultured in YPDA broth media at 37 °C to the mid-logarithmic phase. Fungal cells were centrifuged at 3500 rpm for 5 min and then washed thrice with normal saline (0.9% sodium chloride). The fungal suspension was diluted to 1 × 10^9 CFU/mL in YPDA broth media, and, then, 500 µL was added to wells in a 24-well plate. Incubation was performed for 24 h at 37 °C; then, wells were washed thrice with PBS. […] Normal saline was added to the negative control group. […] After incubation, the non-adherent cells were washed with PBS, 250 µL (10 µg/mL) of FDA dye (Solarbio, Beijing, China) was added to each well and left in the dark for 20 min, and, then, 250 µL (5 µg/mL) of PI dye (Solarbio, Beijing, China) was added and co-stained in the dark for 10 min. Microscopy observation was performed utilizing the TPLSM (A1MP+, Nikon, Tokyo, Japan) at 555 nm and 488 nm excitations for PI and FDA, respectively.

[9] = test system: C. neoformans; test: Mice systemic infection model, fungal burden; type: in vivo, C57BL/6J female mice; settings: immunocompromised mice, 8 × 10^6 CFU/mouse i.p., QS18 1, 2, 4 mg/kg i.p. 12 h after infection, read 12 h post-treatment, n = 4
Method: (§2) Mice systemic infection and the treatment model were performed to assess the dissemination of fungi to target organs as described by with little modifications. C57BL/6J female mice 20 ± 2 g were immunocompromised through the intraperitoneal injection of 150 mg/kg cyclophosphamide for four days prior to infection. C. neoformans was then cultured in YPDA broth media to mid-log phase. […] Fungal pellets were resuspended in the same buffer, and the optical density (OD) value was adjusted to 4 × 10^7 CFU/mL. A volume of 200 µL of the fungal solution was i.p. injected into immunocompromised mice (n = 4), a total of 8 × 10^6 colony-forming units (CFUs) injected per mouse. Twelve hours post-intraperitoneal inoculation of the fungi, treatment was administered. […] Twelve hours post-treatment, the mice were sacrificed, and blood was collected through retro-orbital bleeding. Organs (lung, liver, kidney, and spleen) were also harvested and divided into two parts. One portion was weighed and placed into a grinding tube with 1 mL of normal saline and then homogenized in a tissue grinder to assess the fungal burden, while fixation of the other portion was performed for the histopathology examination. Following a 5-fold serial dilution in normal saline, 100 µL of the homogenates were seeded on YPDA plates and incubated at 37 °C for 48 h before counting colonies.

[10] = test system: C. neoformans BNCC225501; test: Time-killing kinetics assay; type: cell-based, Cryptococcus neoformans
Method: C. neoformans fungi grown to mid-log phase was adjusted with normal saline to 1 × 10^5 CFU/mL. […] A volume of 10 µL of the sample was taken at each time point and diluted with sterile normal saline to 100-fold. A total of 100 µL of the dilution was seeded on YPDA media agar plates in three replicates for each concentration per time point. Plates were incubated for 18–24 h at 37 °C, and the number of viable colonies was determined to assess the rate of fungi growth.

[11] = test system: C. neoformans BNCC225501 biofilm; test: Biofilm eradication assay, crystal violet; type: cell-based, Cryptococcus neoformans
Method: Evaluation of the peptide’s ability to eradicate C. neoformans BNCC225501 biofilms was performed by culturing and harvesting the fungal cells as described in the biofilm inhibition assay above. Incubation of the fungal solution (1 × 10^6 CFU/mL in YPDA media) was conducted in 96-well plates for 48 h at 37 °C. […] Excess stain was washed off with PBS, and 95% ethanol (100 µL) was added. Using a microplate reader, absorbance was determined at 600 nm for quantification of the percentage of biofilm eradication.

[12] = test system: C. neoformans; settings: then 4 × MIC on C. neoformans 1 × 10^6 CFU/mL, absorbance 595 nm
Method: Incubation of the mixture was performed for 3 h at 37 °C. A volume of 100 µL of fresh yeast extract peptone dextrose agar (YPDA) broth media was added to the mixture followed by a further 16 h of incubation. Included as negative controls were samples containing heat-inactivated protease with no peptide but media only. The inhibition of fungal growth was detected by measuring absorbance at 595 nm with a Synergy H1 Micro plate Reader (Bio-Tek, Winooski, VT, USA). The assays were performed in three replicates.

[13] = test system: C. neoformans; test: Scanning and transmission electron microscopy; type: cell-based, Cryptococcus neoformans; settings: 10× the MIC; 14 µM, 2 h at 37 °C
Method: C. neoformans were cultured in YPDA broth to mid-log phase and diluted with normal saline (0.9% sodium chloride) to 1 × 10^9 CFU/mL. The cultures were centrifuged at 3500 rpm for 5 min, and the supernatant was discarded. After three washes with normal saline, the fungal pellets were re-suspended in normal saline. […] At 2 h post-incubation, the suspensions were centrifuged at 3500 rpm for 5 min, the supernatant was aspirated, and the pellets were re-suspended/fixed in 1 mL of 2.5% glutaraldehyde. Fixation was performed overnight at 4 °C. Next, the samples were washed in normal saline and dehydrated in a graded series of ethanol (50%, 70%, 90%, and 100%). In the end, the pellets were placed on aluminum stubs, vacuum sputter-coated in gold, and the Hitachi S-3000N (Tokyo, Japan) SEM was used to examine the membrane morphology.
For transmission electron microscopy, the cells were cultured and harvested as described above. After dehydration, cells were embedded and stained for observation under transmission electron microscopy.

[14] = test system: C. neoformans; test: Histopathological examination of infected mice; type: in vivo, C57BL/6J female mice; settings: 4 mg/kg i.p., lung, liver, spleen and kidney, 12 h post-treatment
Method: as §2, with “colonies. […]” for “colonies.”

[15] = In vivo acute toxicity test; settings: mouse, in vivo, ip; mice, single intraperitoneal dose, observed up to 72 h
Method: (§3) The peptide was administered in decreasing dosages to the different groups of mice. The concentration was lowered after three repeats if death was immediate, and 6 mice were injected if no death occurred. Following injection, mice were examined visually for any indications of toxicity, and the times at which mice died were recorded at 12/24/48/60 and 72 h. The following signs were used to assess toxicity: hunched back, ruffled fur, poor motility, and total immobility resulting in death.

[16] = test system: C57BL/6J male mice; test: In vivo acute toxicity test
Method: as §3

[17] = test system: trypsin; settings: peptide 1 mg/mL, peptide:enzyme 250:1, 5 mM CaCl2, 50 mM Tris-HCl pH 7.4, 37 °C, time points 0 to 12 h, SDS-PAGE bands
Method: (§4) The mixture was heated for 10 min at 95 °C to halt enzymatic reaction. A solution of 20 µL of the SDS-PAGE loading buffer (5×) was added to 80 µL of the sample, mixed by vortexing and heated for 5 min at 95 °C. SDS-PAGE analysis was performed using Omni-PAGE™Precast HEPES-Tris Gels. LL37 and colistin antibiotics were used as controls.

[18] = test system: chymotrypsin; settings: peptide 1 mg/mL, peptide:enzyme 250:1, 5 mM CaCl2, 50 mM Tris-HCl pH 7.4, 37 °C, time points 0 to 12 h, SDS-PAGE bands
Method: as §4

[19] = broth microdilution, YM broth, 2 × 10^6 CFU/mL, 24 h at 37 °C, lowest concentration that fully inhibited growth

C[C@@H]1[C@H](O)[C@@H](C)/C=C/C=C/C=C/C=C/C=C/C=C/C=C/[C@H](O[C@@H]2O[C@H](C)[C@@H](O)[C@H](N)[C@@H]2O)C[C@@H]2O[C@](O)(C[C@@H](O)C[C@@H](O)[C@H](O)CC[C@@H](O)C[C@@H](O)CC(=O)O[C@H]1C)C[C@H](O)[C@H]2C(=O)O [Amphotericin B, amphotericin B, reference compound]
MIC ([1]; Cryptococcus, 24 h): 3.4 µM (≈ 3.14 µg/mL) | MIC ([2]; Candida, 24 h): ≤ 0.4 µM | MIC ([3]; Candida, 24 h): 0.8 µM (≈ 0.739 µg/mL) | MIC ([4]; Cryptococcus, 24 h): 1.7 µM (≈ 1.57 µg/mL) | MIC ([5]; Candida, 24 h): 1.7 µM (≈ 1.57 µg/mL)

CC(C)[C@@H]1NC(=O)[C@H](CCCCN)NC(=O)[C@H](Cc2ccccc2)NC(=O)[C@@H](NC(=O)[C@@H](N)CCC(N)=O)CSSC[C@@H](C(=O)N[C@@H](CO)C(=O)N[C@@H](CCCNC(=N)N)C(=O)N[C@@H](CO)C(N)=O)NC(=O)[C@H](CCCCN)NC(=O)[C@H]([C@@H](C)O)NC(=O)[C@H](Cc2ccccc2)NC(=O)[C@@H]2CSSC[C@H](NC1=O)C(=O)N[C@@H](Cc1ccccc1)C(=O)N[C@@H](CCCNC(=N)N)C(=O)N[C@@H](CCCCN)C(=O)N[C@@H](CCCNC(=N)N)C(=O)N2 [QS18] (H-QCFKVCFRKRCFTKCSRS-NH2; disulfide 2-15, 6-11; N-terminus and C-terminus assumed)
DiSC3(5) fluorescence (membrane depolarization) [6]: significant increase in fluorescence | plasma IL-1β, IL-6, TNF-α and MCP-1 [7]: dose-dependent reductions in these inflammatory markers | viability of biofilm cells, PI/FDA fluorescence [8]: decreased dose-dependently | fungal burden (CFU) in lung, liver, kidney, spleen and blood [9]: significant suppression of fungi dissemination to target organs | time to no fungal growth ([10]; 5× the MIC, 1 × 10^5 CFU/mL, 37 °C, colony count): 120 min | time to kill fungi ([10]; C. neoformans BNCC 225501, as worded in the discussion): within an hour | eradication of preformed biofilms ([11]; 1 × MIC, 48 h preformed biofilm, crystal violet OD600): up to 65% | eradication of biofilms ([11]; sub-MIC levels): over 50% | antifungal activity after chymotrypsin exposure ([12]; 2 h with chymotrypsin (250:1) at 37 °C): maintained its activity | antifungal efficacy after trypsin exposure ([12]; 2 h with trypsin (250:1) at 37 °C): reduced antifungal efficacy | cell morphology by SEM and TEM [13]: leaked cytoplasmic contents, as well as irregular cell morphology with shrunken cell surfaces | tissue morphology, H&E staining [14]: near-normal tissue morphology | LD50 at 72 h [15]: 30 mg/kg | LD50 i.p. compared to intravenous administration [16]: two-fold | acute toxicity observation ([16]; intravenous, 10 mg/kg, over 72 hours): no signs of toxicity or death | intravenous toxicity ([16]; intravenous, 20 mg/kg and 40 mg/kg): lethal effect | MIC times lower than that of fluconazole ([4]; oxidized QS18 compared with fluconazole): approximately fourteen | proteolytic stability with trypsin [17]: complete degradation after 1 h | proteolytic stability with chymotrypsin [18]: remained stable in chymotrypsin even after 12 h of incubation

CC(C)[C@H](NC(=O)[C@H](CCCCN)NC(=O)[C@H](Cc1ccccc1)NC(=O)[C@H](CS)NC(=O)[C@@H](N)CCC(N)=O)C(=O)N[C@@H](CS)C(=O)N[C@@H](Cc1ccccc1)C(=O)N[C@@H](CCCNC(=N)N)C(=O)N[C@@H](CCCCN)C(=O)N[C@@H](CCCNC(=N)N)C(=O)N[C@@H](CS)C(=O)N[C@@H](Cc1ccccc1)C(=O)N[C@H](C(=O)N[C@@H](CCCCN)C(=O)N[C@@H](CS)C(=O)N[C@@H](CO)C(=O)N[C@@H](CCCNC(=N)N)C(=O)N[C@@H](CO)C(=O)O)[C@@H](C)O [QS18red] (H-QCFKVCFRKRCFTKCSRS-OH)
MIC [1, 19]: ≥ 89.8 µM | MIC [2, 19]: > 89.8 µM | MIC [3, 19]: 44.9 µM (≈ 100 µg/mL) | MIC [4, 19]: 89.8 µM (≈ 200 µg/mL) | MIC [5, 19]: > 89.8 µM | proteolytic stability with trypsin [17]: no bands observed even at t = 0 min | proteolytic stability with chymotrypsin [18]: faint initial band that disappeared after 15 min
